Data reported in US12076323B2, “Treatment of hair loss disorders with deuterated JAK inhibitors” (Sun Pharmaceutical Industries, Inc., priority 2016, dated 2024).
Read-outs that look alike come from different tables or passages of the source.

What was measured:
[1] = Metabolic stability using human liver microsomes; type: in vitro ADME; details: 0.25 μM test compound, 2 mM NADPH, 37° C.
Protocol: Deuterated test compounds were supplied by Concert Pharmaceuticals.
A 10 μL aliquot of the 12.5 μM test compound was added to the microsomes and the mixture was pre-warmed for 10 minutes.
Data analysis was performed using Microsoft Excel Software.

[2] = Single Ascending Dose (SAD) study, pharmacokinetics in healthy volunteers; type: in vivo, human; details: fasted; for AUC(0-inf) / Cmax / half-life / AUC(0-t) / concentration at 24 h / Vd/F / Tmax: human, in vivo, oral; for AUC(0-inf) / Cmax / half-life / AUC(0-t) / concentration at 24 h / Vd/F / CL/F: arithmetic mean; for AUC(0-t): read-out: AUC0-24hr; for concentration at 24 h: read-out: C24hr; for Vd/F: read-out: Vz/F; for Tmax: median
[3] = Multiple Ascending Dose (MAD) study, pharmacokinetics in healthy volunteers; type: in vivo, human; details: for Cmax / half-life / AUC(0-t) / concentration at 12 h / Tmax / concentration at 24 h: human, in vivo, oral; for Cmax / half-life / AUC(0-t) / concentration at 12 h / concentration at 24 h: arithmetic mean; for concentration at 12 h: read-out: C12hr; for Tmax: median; for concentration at 24 h: read-out: C24hr
[4] = Combined SAD and MAD (Phase 1) studies, safety and tolerability; type: in vivo, human
Protocol: In the combined SAD and MAD studies, a total of 77 subjects were dosed (60 received CTP-543; 17 received placebo).

[5] = tested on: IL-6-stimulated phosphorylated STAT3 (pSTAT3); assay: Pharmacodynamic analysis in MAD study: IL-6-stimulated pSTAT3; type: in vivo, human; details: all treatment groups
Protocol: (§1) Pharmacodynamic analyses were also performed during the MAD study of the Phase 1 trial to assess the inhibition of IL-6- and IFN-γ-mediated JAK/STAT signaling.

[6] = tested on: IFN-γ-mediated STAT1 signaling; assay: Pharmacodynamic analysis in MAD study: IFN-γ-mediated STAT1 signaling; type: in vivo, human; details: disease-relevant immune cell types, all doses evaluated
Protocol: as §1

[7] = single dose 8 mg as phosphate salt, n = 6
[8] = single dose 16 mg as phosphate salt, n = 6
[9] = single dose 32 mg as phosphate salt, n = 6
[10] = single dose 48 mg as phosphate salt, n = 5

[2H]C1([2H])C([C@@H](CC#N)n2cc(-c3ncnc4[nH]ccc34)cn2)C([2H])([2H])C([2H])([2H])C1([2H])[2H] [Compound (I), (R)-3-(4-(7H-pyrrolo[2,3-d]pyrimidin-4-yl)-1H-pyrazol-1-yl)-3-(cyclopentyl-2,2,3,3,4,4,5,5-d8)propanenitrile]
t1/2 longer than the t1/2 of non-deuterated ruxolitinib [1]: about 75% | AUC(0-inf) [2, 7]: 589 ng·h/mL | Cmax [2, 7]: 118 ng/mL | half-life [2, 7]: 3.14 h | AUC(0-t) [2, 7]: 584 ng·h/mL | concentration at 24 h [2, 7]: 1.02 ng/mL | Vd/F [2, 7]: 64.1 L | Tmax [2, 7]: 1.25 h | AUC(0-inf) [2, 8]: 1350 ng·h/mL | Cmax [2, 8]: 260 ng/mL | half-life [2, 8]: 3.32 h | AUC(0-t) [2, 8]: 1330 ng·h/mL | concentration at 24 h [2, 8]: 2.77 ng/mL | Vd/F [2, 8]: 61 L | AUC(0-inf) [2, 9]: 2460 ng·h/mL | Cmax [2, 9]: 535 ng/mL | half-life [2, 9]: 3.52 h | AUC(0-t) [2, 9]: 2420 ng·h/mL | concentration at 24 h [2, 9]: 5.6 ng/mL | Vd/F [2, 9]: 68.4 L | Tmax [2, 9]: 1.25 h | AUC(0-inf) [2, 10]: 4160 ng·h/mL | Cmax [2, 10]: 853 ng/mL | half-life [2, 10]: 3.61 h | AUC(0-t) [2, 10]: 4100 ng·h/mL | concentration at 24 h [2, 10]: 9.26 ng/mL | Vd/F [2, 10]: 63.2 L | CL/F [2, 7]: 14.92 L/h | CL/F [2, 8]: 13.87 L/h | CL/F [2, 9]: 13.88 L/h | CL/F [2, 10]: 12.75 L/h | average systemic exposure versus published average reported exposure of 20 mg BID ruxolitinib ([3]; 16 mg BID of Compound (I)): comparable | Cmax ([3]; 8 mg, 8 mg BID, Day 1, n = 4): 160 ng/mL | half-life ([3]; 8 mg, 8 mg BID, Day 1, n = 4): 3.77 h | AUC(0-t) ([3]; 8 mg, 8 mg BID, Day 1, n = 4, read-out: AUCtau/AUC0-12hr): 703 ng·h/mL | concentration at 12 h ([3]; 8 mg, 8 mg BID, Day 1, n = 4): 13.7 ng/mL | Tmax ([3]; 8 mg, 8 mg BID, Day 1, n = 4): 1 h | Cmax ([3]; 8 mg, 8 mg BID, Day 7, n = 4): 183 ng/mL | half-life ([3]; 8 mg, 8 mg BID, Day 7, n = 4): 4.2 h | AUC(0-t) ([3]; 8 mg, 8 mg BID, Day 7, n = 4, read-out: AUCtau/AUC0-12hr): 844 ng·h/mL | concentration at 12 h ([3]; 8 mg, 8 mg BID, Day 7, n = 4): 13.2 ng/mL | Cmax ([3]; 8 mg, 8 mg QD, Day 1, n = 7): 156 ng/mL | half-life ([3]; 8 mg, 8 mg QD, Day 1, n = 7): 3.23 h | AUC(0-t) ([3]; 8 mg, 8 mg QD, Day 1, n = 7, read-out: AUCtau/AUC0-24hr): 704 ng·h/mL | concentration at 24 h ([3]; 8 mg, 8 mg QD, Day 1, n = 7): 0.86 ng/mL | Tmax ([3]; 8 mg, 8 mg QD, Day 1, n = 7): 1 h | Cmax ([3]; 8 mg, 8 mg QD, Day 7, n = 7): 151 ng/mL | half-life ([3]; 8 mg, 8 mg QD, Day 7, n = 7): 3.51 h | AUC(0-t) ([3]; 8 mg, 8 mg QD, Day 7, n = 7, read-out: AUCtau/AUC0-24hr): 668 ng·h/mL | concentration at 24 h ([3]; 8 mg, 8 mg QD, Day 7, n = 7): 1.01 ng/mL | Tmax ([3]; 8 mg, 8 mg QD, Day 7, n = 7): 1 h | Cmax ([3]; 16 mg, 16 mg BID, Day 1, n = 8): 290 ng/mL | half-life ([3]; 16 mg, 16 mg BID, Day 1, n = 8): 2.89 h | AUC(0-t) ([3]; 16 mg, 16 mg BID, Day 1, n = 8, read-out: AUCtau/AUC0-12hr): 1060 ng·h/mL | concentration at 12 h ([3]; 16 mg, 16 mg BID, Day 1, n = 8): 15.3 ng/mL | Tmax ([3]; 16 mg, 16 mg BID, Day 1, n = 8): 1 h | Cmax ([3]; 16 mg, 16 mg BID, Day 7, n = 8): 288 ng/mL | half-life ([3]; 16 mg, 16 mg BID, Day 7, n = 8): 3.53 h | AUC(0-t) ([3]; 16 mg, 16 mg BID, Day 7, n = 8, read-out: AUCtau/AUC0-12hr): 1130 ng·h/mL | concentration at 12 h ([3]; 16 mg, 16 mg BID, Day 7, n = 8): 16.5 ng/mL | Tmax ([3]; 16 mg, 16 mg BID, Day 7, n = 8): 0.75 h | Cmax ([3]; 24 mg, 24 mg QD, Day 1, n = 8): 384 ng/mL | half-life ([3]; 24 mg, 24 mg QD, Day 1, n = 8): 3.14 h | AUC(0-t) ([3]; 24 mg, 24 mg QD, Day 1, n = 8, read-out: AUCtau/AUC0-24hr): 1670 ng·h/mL | concentration at 24 h ([3]; 24 mg, 24 mg QD, Day 1, n = 8): 2.48 ng/mL | Tmax ([3]; 24 mg, 24 mg QD, Day 1, n = 8): 0.5 h | Cmax ([3]; 24 mg, 24 mg QD, Day 7, n = 8): 310 ng/mL | half-life ([3]; 24 mg, 24 mg QD, Day 7, n = 8): 3.5 h | AUC(0-t) ([3]; 24 mg, 24 mg QD, Day 7, n = 8, read-out: AUCtau/AUC0-24hr): 1530 ng·h/mL | concentration at 24 h ([3]; 24 mg, 24 mg QD, Day 7, n = 8): 3.39 ng/mL | Tmax ([3]; 24 mg, 24 mg QD, Day 7, n = 8): 1 h | Cmax ([3]; 32 mg, 32 mg QD, Day 1, n = 8): 509 ng/mL | half-life ([3]; 32 mg, 32 mg QD, Day 1, n = 8): 2.86 h | AUC(0-t) ([3]; 32 mg, 32 mg QD, Day 1, n = 8, read-out: AUCtau/AUC0-24hr): 2220 ng·h/mL | concentration at 24 h ([3]; 32 mg, 32 mg QD, Day 1, n = 8): 2.95 ng/mL | Tmax ([3]; 32 mg, 32 mg QD, Day 1, n = 8): 0.75 h | Cmax ([3]; 32 mg, 32 mg QD, Day 7, n = 8): 492 ng/mL | AUC(0-t) ([3]; 32 mg, 32 mg QD, Day 7, n = 8, read-out: AUCtau/AUC0-24hr): 2100 ng·h/mL | concentration at 24 h ([3]; 32 mg, 32 mg QD, Day 7, n = 8): 5.12 ng/mL | Tmax ([3]; 32 mg, 32 mg QD, Day 7, n = 8): 0.75 h | accumulation with repeated dosing ([3]; repeated dosing, seven consecutive days): did not accumulate | tolerability ([4]; Phase 1 study): generally well tolerated | cases of mild neutropenia ([4]; combined SAD and MAD studies): resolved or trended toward recovery after dosing completion | most common adverse event reported ([4]; combined SAD and MAD studies): headache | severe neutropenia (Grade 3 or 4) ([4]; combined SAD and MAD studies): not observed | withdrawal or dose modification related to CTP-543 ([4]; combined SAD and MAD studies): No withdrawal or dose modification | serious adverse events ([4]; combined SAD and MAD studies, 60 subjects received CTP-543): No serious adverse events were reported | absorption ([4]; combined SAD and MAD studies, oral): rapidly absorbed | IL-6-stimulated phosphorylated STAT3 (pSTAT3) ([5]; MAD study): dose-related reduction | pSTAT3 inhibition at 24 hours post-dose ([5]; 24 hours post-dose): returned to approximate baseline values | IFN-γ-mediated STAT1 signaling [6]: significantly inhibited
